The source made the active and inactive calls. The calls are words filed in the database; no cut-off is given here.
What was measured:
[1] = target: T1, Muscarinic acetylcholine receptor M1 (Homo sapiens, UniProt P11229); assay: Agonist activity at human muscarinic M1 receptor expressed in CHO cells assessed as effect on acetylcholine-induced intracellular calcium level by FLIPR assay; assay type: functional, cell-based
T1 sequence (P11229 whole entry): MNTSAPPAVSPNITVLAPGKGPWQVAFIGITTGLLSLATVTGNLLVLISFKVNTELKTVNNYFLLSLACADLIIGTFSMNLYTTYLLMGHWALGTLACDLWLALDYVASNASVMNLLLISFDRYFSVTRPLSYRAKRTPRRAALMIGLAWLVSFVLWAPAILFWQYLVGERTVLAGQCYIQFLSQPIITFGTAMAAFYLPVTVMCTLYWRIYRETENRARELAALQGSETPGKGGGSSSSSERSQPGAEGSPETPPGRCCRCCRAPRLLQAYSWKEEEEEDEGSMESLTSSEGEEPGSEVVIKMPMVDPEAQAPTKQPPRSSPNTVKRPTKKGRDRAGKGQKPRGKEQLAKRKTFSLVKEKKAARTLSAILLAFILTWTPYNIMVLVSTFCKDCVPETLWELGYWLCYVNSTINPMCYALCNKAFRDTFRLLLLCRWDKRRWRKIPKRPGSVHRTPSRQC

[2] = target: T2, Muscarinic acetylcholine receptor M1 (Homo sapiens) (UniProt P11229); assay: Intrinsic activity at human muscarinic M1 receptor expressed in CHO cells assessed as effect on acetylcholine-induced intracellular calcium level by FLIPR assay relative to acetylcholine; assay type: functional, cell-based
T2 sequence (whole entry): T1 sequence (P11229 whole entry)

[3] = target: T3, Muscarinic acetylcholine receptor M4 (Homo sapiens, UniProt P08173); assay: Inhibition of human muscarinic M4 receptor expressed in CHO cells; assay type: cell-based
T3 sequence (P08173 whole entry): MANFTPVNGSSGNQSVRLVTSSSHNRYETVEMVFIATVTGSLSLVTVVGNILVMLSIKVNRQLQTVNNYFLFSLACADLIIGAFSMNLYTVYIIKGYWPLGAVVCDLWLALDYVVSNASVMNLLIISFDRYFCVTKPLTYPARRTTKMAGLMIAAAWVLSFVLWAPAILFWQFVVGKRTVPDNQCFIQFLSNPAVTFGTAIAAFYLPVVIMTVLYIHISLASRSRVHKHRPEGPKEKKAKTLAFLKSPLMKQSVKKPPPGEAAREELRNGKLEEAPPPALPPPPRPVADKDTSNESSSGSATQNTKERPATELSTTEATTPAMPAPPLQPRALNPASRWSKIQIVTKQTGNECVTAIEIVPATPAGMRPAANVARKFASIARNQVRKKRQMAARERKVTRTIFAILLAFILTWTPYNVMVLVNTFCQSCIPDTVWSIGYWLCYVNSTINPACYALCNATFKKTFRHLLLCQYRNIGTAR

[4] = target: T4, Muscarinic acetylcholine receptor M4 (Homo sapiens) (UniProt P08173); assay: Agonist activity at human muscarinic M4 receptor expressed in CHO cells assessed as effect on acetylcholine-induced intracellular calcium level by FLIPR assay; assay type: functional, cell-based
T4 sequence (whole entry): T3 sequence (P08173 whole entry)

[5] = target: T5, Muscarinic acetylcholine receptor M5 (Homo sapiens, UniProt P08912); assay: Inhibition of human muscarinic M5 receptor expressed in CHO cells; assay type: cell-based
T5 sequence (P08912 whole entry): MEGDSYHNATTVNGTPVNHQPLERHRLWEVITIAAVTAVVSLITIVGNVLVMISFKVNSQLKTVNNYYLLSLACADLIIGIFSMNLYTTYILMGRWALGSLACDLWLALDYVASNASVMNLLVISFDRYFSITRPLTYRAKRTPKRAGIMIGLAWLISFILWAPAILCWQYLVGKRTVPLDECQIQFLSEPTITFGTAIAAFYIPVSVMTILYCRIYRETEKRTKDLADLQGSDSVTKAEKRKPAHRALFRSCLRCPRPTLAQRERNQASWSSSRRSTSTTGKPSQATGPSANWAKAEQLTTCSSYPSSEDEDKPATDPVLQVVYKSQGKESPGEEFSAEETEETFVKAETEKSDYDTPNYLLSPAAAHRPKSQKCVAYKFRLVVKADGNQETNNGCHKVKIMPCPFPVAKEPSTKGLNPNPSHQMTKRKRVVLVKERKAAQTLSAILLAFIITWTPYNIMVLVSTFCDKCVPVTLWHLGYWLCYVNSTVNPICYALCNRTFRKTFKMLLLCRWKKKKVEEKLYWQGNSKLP

[6] = target: T6, Muscarinic acetylcholine receptor M5 (Homo sapiens) (UniProt P08912); assay: Agonist activity at human muscarinic M5 receptor expressed in CHO cells assessed as effect on acetylcholine-induced intracellular calcium level by FLIPR assay; assay type: functional, cell-based
T6 sequence (whole entry): T5 sequence (P08912 whole entry)

[7] = target: T7, Muscarinic acetylcholine receptor M3 (Homo sapiens, UniProt P20309); assay: Agonist activity at human muscarinic M3 receptor expressed in CHO cells assessed as effect on acetylcholine-induced intracellular calcium level by FLIPR assay; assay type: functional, cell-based
Target sequence in this assay (P20309 whole entry, looked up): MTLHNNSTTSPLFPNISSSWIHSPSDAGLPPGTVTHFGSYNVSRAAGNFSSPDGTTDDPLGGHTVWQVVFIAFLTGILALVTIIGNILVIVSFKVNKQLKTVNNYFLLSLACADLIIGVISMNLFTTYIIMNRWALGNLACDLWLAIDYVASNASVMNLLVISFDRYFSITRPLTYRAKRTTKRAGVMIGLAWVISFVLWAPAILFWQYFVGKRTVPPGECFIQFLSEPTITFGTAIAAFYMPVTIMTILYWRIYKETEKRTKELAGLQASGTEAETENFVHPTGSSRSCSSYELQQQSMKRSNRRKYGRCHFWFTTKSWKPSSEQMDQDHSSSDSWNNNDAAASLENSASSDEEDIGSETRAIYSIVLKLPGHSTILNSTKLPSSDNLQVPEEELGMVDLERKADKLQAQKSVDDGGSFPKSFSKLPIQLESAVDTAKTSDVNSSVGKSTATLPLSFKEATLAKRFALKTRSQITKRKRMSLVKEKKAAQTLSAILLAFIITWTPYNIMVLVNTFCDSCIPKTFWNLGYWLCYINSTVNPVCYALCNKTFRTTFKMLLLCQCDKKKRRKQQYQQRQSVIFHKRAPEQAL

[8] = target: T8, Muscarinic acetylcholine receptor M2 (Homo sapiens) (UniProt P08172); assay: Agonist activity at human muscarinic M2 receptor expressed in CHO cells assessed as effect on acetylcholine-induced intracellular calcium level by FLIPR assay; assay type: functional, cell-based
T8 sequence (whole entry): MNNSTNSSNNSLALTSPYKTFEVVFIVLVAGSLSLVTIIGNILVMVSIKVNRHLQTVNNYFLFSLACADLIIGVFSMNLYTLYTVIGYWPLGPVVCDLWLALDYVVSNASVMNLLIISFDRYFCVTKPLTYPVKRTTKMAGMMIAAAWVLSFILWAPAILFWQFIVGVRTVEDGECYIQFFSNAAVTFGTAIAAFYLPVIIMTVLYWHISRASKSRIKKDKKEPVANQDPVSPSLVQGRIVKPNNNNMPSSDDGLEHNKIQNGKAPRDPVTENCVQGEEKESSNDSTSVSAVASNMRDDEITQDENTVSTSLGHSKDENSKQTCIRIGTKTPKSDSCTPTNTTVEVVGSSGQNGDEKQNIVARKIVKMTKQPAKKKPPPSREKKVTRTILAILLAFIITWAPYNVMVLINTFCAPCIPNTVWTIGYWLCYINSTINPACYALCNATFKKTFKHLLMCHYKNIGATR

[9] = target: T9, Muscarinic acetylcholine receptor M2 (Homo sapiens, UniProt P08172); assay: Inhibition of human muscarinic M2 receptor expressed in CHO cells; assay type: cell-based
T9 sequence (P08172 whole entry): T8 sequence (whole entry)

[10] = target: T7, Muscarinic acetylcholine receptor M3; assay: Inhibition of human muscarinic M3 receptor expressed in CHO cells; assay type: cell-based
Target sequence in this assay (P20309 whole entry): as the sequence (P20309 whole entry, looked up) above

Structure (SMILES) | EC50 [1] [µM] | further results
CC(=O)c1cccc(-c2ccccc2C(=O)NCC2CCNCC2)c1 | > 10 | –
O=C(NCC1CCNCC1)c1ccccc1-c1ccc(C(F)(F)F)cc1 | > 10 | –
O=C(NCC1CCNCC1)c1ccccc1-c1ccc(F)c(Cl)c1 | 0.0251 | Intrinsic activity [2]: 76%
CN1CCC(CNC(=O)c2ccccc2-c2cccc(Cl)c2)CC1 | > 10 | Intrinsic activity [2]: 16%
Cc1cc(Cl)cc(-c2ccccc2C(=O)NCC2CCNCC2)c1 | 1.58 | Intrinsic activity [2]: 52%
COCc1cccc(-c2ccccc2C(=O)NCC2CCNCC2)c1 | > 10 | –
Cc1cccc(-c2ccccc2C(=O)NCC2CCNCC2)c1 | > 10 | –
CS(=O)(=O)c1cccc(-c2ccccc2C(=O)NCC2CCNCC2)c1 | > 10 | –
CC1CC(CNC(=O)c2ccccc2-c2cccc(Cl)c2)CCN1 (centres undefined) | > 10 | Intrinsic activity [2]: 28%
O=C(NCC1CCNCC1)c1ccccc1-c1cccc2ccccc12 | > 10 | –
N#Cc1cccc(-c2ccccc2C(=O)NCC2CCNCC2)c1 | > 10 | –
O=C(NCC1CCNCC1)c1ccccc1-c1ccc(Cl)s1 | > 10 | –
O=C(NCC1CCOCC1)c1ccccc1-c1nc(Cl)cs1 | > 10 | –
CN(CC1CCNCC1)C(=O)c1ccccc1-c1cccc(Cl)c1 | > 10 | Intrinsic activity [2]: 2%
O=C(NCC1CCNCC1)c1ccccc1-c1ccc(F)cc1 | > 10 | –
O=C(NCC1CCN2CCCC1C2)c1ccccc1-c1cccc(Cl)c1 (centres undefined) | > 10 | –
O=C(NCC1CCNCC1)c1ccccc1-c1cc(Cl)cc(Cl)c1 | > 10 | Intrinsic activity [2]: 24%
N[C@H]1CC[C@H](CNC(=O)c2ccccc2-c2cccc(Cl)c2)CC1 | > 10 | –
O=C(NCC1CCCNC1)c1ccccc1-c1nc(Cl)cs1 (centres undefined) | > 10 | –
O=C(NC1CCNC1)c1ccccc1-c1nc(Cl)cs1 (centres undefined) | > 10 | –
O=C(NCC1CCNCC1)c1ccccc1-c1cccc(Cl)c1 | 0.0631 | IC50 [3]: 5.01 µM; Activity [4]: inactive; IC50 [5]: > 10 µM; Intrinsic activity [2]: 86%; Activity [6]: inactive; Activity [7]: inactive; Activity [8]: inactive; IC50 [9]: 7.94 µM; IC50 [10]: 3.98 µM
O=C(NCC12CCN(CC1)C2)c1ccccc1-c1cccc(Cl)c1 | > 10 | –

Structure (SMILES) | EC50 [1] [µM] | further results
CC1(C)CNCCC1CNC(=O)c1cc(Cl)ccc1-c1cccc(Cl)c1 (centres undefined) | > 10 | –
O=C(NCC1CCNC1)c1ccccc1-c1nc(Cl)cs1 (centres undefined) | > 10 | –
CN(C)c1cccc(-c2ccccc2C(=O)NCC2CCNCC2)c1 | > 10 | –
O=C(NCC1CCNCC1)c1ccccc1-c1ccncc1 | > 10 | –
COc1ccc(-c2ccccc2C(=O)NCC2CCNCC2)cc1 | > 10 | –
O=C(NCC1CCNCC1)c1ccccc1-c1cccs1 | > 10 | –
O=C(NCC1CCNCC1)c1ccccc1-c1cccc(Cl)c1Cl | > 10 | Intrinsic activity [2]: 16%
O=C(NCC1CCNCC1)c1ccccc1-c1ccco1 | > 10 | –
O=C(NCC1CCCN1)c1ccccc1-c1nc(Cl)cs1 (centres undefined) | > 10 | –
O=C(NCC1CCNCC1)c1ccccc1-c1ccccc1Cl | > 10 | –
COc1ccccc1-c1ccccc1C(=O)NCC1CCNCC1 | > 10 | –
O=C(NCC1CCNCC1)c1ccccc1-c1ccc(Cl)c(Cl)c1 | 0.0501 | Intrinsic activity [2]: 59%
CC1(CNC(=O)c2ccccc2-c2cccc(Cl)c2)CCNCC1 | > 10 | Intrinsic activity [2]: 45%
CC(NC(=O)c1ccccc1-c1cccc(Cl)c1)C1CCNCC1 (centres undefined) | > 10 | Intrinsic activity [2]: 26%
O=C(NCC1CNCCO1)c1ccccc1-c1nc(Cl)cs1 (centres undefined) | > 10 | –
O=C(NCC1CCNCC1)c1ccccc1-c1ccc2ccccc2c1 | > 10 | –
Cc1c(Cl)cccc1-c1ccccc1C(=O)NCC1CCNCC1 | > 10 | Intrinsic activity [2]: 5%
O=C(NCC1CCNCC1)c1ccccc1-c1cccc(OC(F)(F)F)c1 | > 10 | –
NC(=O)c1cccc(-c2ccccc2C(=O)NCC2CCNCC2)c1 | > 10 | –
O=C(NC1CCNCC1)c1ccccc1-c1nc(Cl)cs1 | > 10 | –
O=C(NCC1CCNCC1)c1ccccc1-c1cccc(F)c1 | > 10 | –
O=C(O)c1cccc(-c2ccccc2C(=O)NCC2CCNCC2)c1 | > 10 | –

Structure (SMILES) | EC50 [1] [µM] | further results
O=C(NCC1CCNCC1)c1ccccc1-c1nc(Cl)cs1 | – | Activity [4]: inactive; Intrinsic activity [2]: 84%; Activity [6]: inactive; Activity [7]: inactive; Activity [8]: inactive
Cc1ccc(-c2ccccc2C(=O)NCC2CCNCC2)cc1 | > 10 | –
O=C(NCC1CCNCC1)c1ccccc1-c1cccc(-c2ccccc2)c1 | > 10 | –
O=C(NCC1CCNCC1)c1ccccc1-c1cccnc1 | > 10 | –
O=C(NCC1CCNCC1)c1ccccc1-c1cc(Cl)ccc1Cl | 0.0398 | Intrinsic activity [2]: 100%
CC(=O)Nc1cccc(-c2ccccc2C(=O)NCC2CCNCC2)c1 | > 10 | –
O=C(NCC12CCN(CC1)CC2)c1ccccc1-c1nc(Cl)cs1 | 0.251 | Intrinsic activity [2]: 63%
O=C(NCC1CCNCC1)c1ccccc1-c1cc(F)cc(Cl)c1 | > 10 | Intrinsic activity [2]: 17%
O=C(NCC1CCNCC1)c1ccccc1-c1cccc(C(F)(F)F)c1 | > 10 | –
O=C(NCC1CCNCC1)c1ccccc1-c1nccs1 | > 10 | –
O=C(NC[C@H]1C[C@H]2CC[C@@H](C1)N2)c1ccccc1-c1cccc(Cl)c1 | > 10 | –
O=C(NCc1ccncc1)c1ccccc1-c1nc(Cl)cs1 | > 10 | –
COc1cccc(-c2ccccc2C(=O)NCC2CCNCC2)c1 | > 10 | –
O=C(NCC12CCN(CC1)CC2)c1ccccc1-c1cccc(Cl)c1 | > 10 | –
CN(C)C(=O)c1cccc(-c2ccccc2C(=O)NCC2CCNCC2)c1 | > 10 | –
O=C(NCC1CCNCC1)c1ccccc1-c1ccsc1 | > 10 | –
Cc1ccc(Cl)cc1-c1ccccc1C(=O)NCC1CCNCC1 | 0.158 | Intrinsic activity [2]: 86%
NS(=O)(=O)c1cccc(-c2ccccc2C(=O)NCC2CCNCC2)c1 | > 10 | –
O=C(NC1CCCNC1)c1ccccc1-c1nc(Cl)cs1 (centres undefined) | > 10 | –
O=C(NC1CCCCNC1)c1ccccc1-c1nc(Cl)cs1 (centres undefined) | > 10 | –
O=C(NCC1CCNCC1)c1ccccc1-c1cccc(Cl)c1F | 1 | Intrinsic activity [2]: 66%

From ChEMBL document CHEMBL1158607, “2' biaryl amides as novel and subtype selective M1 agonists. Part I: Identification, synthesis, and initial SAR” (Bioorg Med Chem Lett, 2010)
